Holding throughout (format): cell-based
For test [1], the target named is T1, β5c subunit of the 20S proteasome (Homo sapiens, UniProt P20618+P28074).
T1 construct: The proteasome tested in the present disclosure was derived from Raji cells; endogenous in cells; host or cells: Raji cells
Put plainly: Proteasome inhibitory activity, β5c subunit (Raji cells treated with compound, lysed, Suc-LLVY-AMC substrate). The following applies: proteasome from Raji cells incubated with compound 4 h. From the text:
(§1) In the present disclosure, the fluorescent peptide substrate Ac-Ala-Asn-Trp-AMC (abbreviated as Ac-ANW-AMC) and the […] kit containing a fluorescent peptide substrate Suc-Leu-Leu-Val-Tyr-AMC (abbreviated as Suc-LLVY-AMC) (Promega, Item No. G8660) were used to detect the activities of the β5i subunit and β5c subunit of the 20S proteasome, respectively.
(§2) The proteasome tested in the present disclosure was derived from Raji cells, the fluorescent substrate Ac-ANW-AMC was purchased from Roche company, and other reagents were purchased from Sigma company. The experimental system was divided into two parts of cell lysis system and enzyme reaction system. […] The starting concentration of the compound (inhibitor) was 1 μM. It was diluted in a 3-fold serial dilution to a total of 8 concentrations, that is, the administration concentration can be 1 μM, 0.333 μM, 0.111 μM . . . , respectively, and the specific experimental process was described below.
(§3) Raji cells (1×10^6 cells) cryopreserved in liquid nitrogen were thawed rapidly in a water bath at 37° C. The cell pellet was transferred to a 15 mL centrifuge tube, added with 9 mL of fresh medium (Gibco RPMI1640 added with 10% fetal bovine serum and 1% double antibiotics), centrifuged at 120 g for 5 min, inoculated to 25 mL cell culture flasks, and passaged once every 2-3 days.
(§4) The compound was weighed and dissolved in DMSO to a concentration of 10 mM. The compound was then sequentially diluted to concentrations of 200 μM, 66.67 μM, 22.22 μM, 7.41 μM, 2.47 μM, 0.82 μM, 0.27 μM, and 0.091 μM with fresh medium. Raji cells in a good growth status were inoculated into a 48-well cell culture plate at 7×10^5 cells/mL.
(§5) Raji cells in a good growth status were taken and counted. They were then inoculated to a 48-well cell culture plate at 7×10^5 cells/mL. Each 5 μL of the various concentrations of diluted compounds above were taken and added to the culture plate inoculated with cells, and the lowest concentration of compound was 0 μM. The drug bortezomib (Velcade) and ONX-0914 were used as the positive control compounds. All cells were incubated at 37° C. for 4 h.
(§6) The compound-treated cells were sequentially transferred into 1.5 mL centrifuge tubes, centrifuged at 10000 rpm for 2 min, and the supernatants were removed. The cell pellet was resuspended in 1 mL of PBS, centrifuged at 10000 rpm for 2 min, and the supernatant was removed. Cells were resuspended by adding 100 μL of cell lysate (50 mM Tris of pH 7.5, 150 mM NaCl, 5 mM MgCl2, 5 mM ATP, 1 mM DTT, 0.01% NP-40, 1 mM Digitonin, and Cocktail), placed in an ice bath for 30 min, and centrifuged at 13000 rpm for 10 min.
(§7) 2 mg of fluorescent peptide substrate AC-ANW-AMC was dissolved in 424.7 μL of DMSO to obtain an 8 mM stock solution, and stored at −20° C. The stock solution was diluted 100-fold to a final concentration of […] for use in the reaction system. The fluorescent peptide substrate Suc-LLVY-AMC was prepared according to the instructions of the Promega kit.
(§8) Each 20 μL of the prepared proteasome solution above was added to a 96-well white luciferase microplate and added with 25 μL of AC-ANW-AM substrate buffer solution (50 mM Tris of pH 7.5, 150 mM NaCl, 5 mM MgCl2, 5 mM ATP, 80 uM Ac-ANW-AMC and 1 mM DTT) and 25 μL of Suc-LLVY-AMC substrate buffer solution for 10 min of reaction at 37° C. in the dark. Fluorescence values were read at 345 nm/445 nm by using a fluorence microplate reader.
(§9) The data were exported and the inhibition rate in percentage was calculated according to the following formula: Inhibition rate=(maximum signal value-compound signal value)/(maximum signal value−blank signal value)×100%.
(§10) Where the maximum signal was obtained from cell lysates treated with DMSO only, and the blank signal was obtained from wells containing only lysates.

Test [2] relates to MM.1S cell strain. Kind of test: Inhibitory activity of cell strain (CellTiter-Glo). The following applies: Homo sapiens, MM1.S, 72 h incubation. As for the experimental part:
The cells used in this experiment were MM.1S cell strain and the detection reagent was CellTiter-Glo (Promega). […] The experimental process was described below. MM.1S cells in the logarithmic growth phase and in a good status were digested into individual cells by trypsin, centrifuged to remove the supernatant, and counted. Cells were diluted and 100 μL of cell suspension per well was added to a 96-well enzyme-coated plate at 1×10^5 cells per well. The wells containing only RPMI1640 complete medium were set as blank control. The 96-well plate was transferred to a 37° C. incubator containing 5% CO2 for 24 h of incubation.
The compound was accurately weighed and dissolved in DMSO to a concentration of 10^−2 M. 10 μL of compound was pipetted to 190 μL of DMSO to given a 5×10^−4 M compound. 6 μL of the compound (5×10^−5 M) was pipetted to a new 96-well microplate containing 194 μL of RPMI1640 complete medium and diluted in a 3-fold gradient dilution. 50 μL of the diluted compound was transferred to the 96-well microplate containing the cells such that the final compound concentrations were 5×10^−7 M, 1.67×10^−7 M, 5.55×10^−8 M, 1.85×10^−8 M, 6.17×10^−9 M, 2.06×10^−9 M, 6.86×10^−10 M, 2.29×10^−10 M, and 0 M. For the 0 M, no compound was added, and the same concentration of DMSO was added. The marketed drug bortezomib was used as a positive control. The 96-well microplate added with compounds was placed in the 37° C. incubator for 72 h of incubation.
At the predetermined detection time, the 96-well microplate to be detected was placed at room temperature, added with 40 μL of detection reagent (CellTiter-Glo) per well, and covered with a dark lid or piece of aluminium foil. The contents were mixed on an orbit oscillator for 10 min for complete cell lysis, with a vibration speed of 150 rpm. Luminescence values were detected on a multifunctional microplate reader (BioTek Synergy H1 Hybrid Multi-Mode Reade).
The data were exported and the percentage inhibition was calculated according to the following formula: Inhibition rate=(maximum signal value-compound signal value)/(maximum signal value−blank signal value)×100%, • wherein maximum signal was obtained from alone DMSO-treated cells, and blank signal was obtained from wells containing only culture medium.
On the technique in general: ATP-based viability assays read luminescence as a measure of living cells.

Test [3] deals with T2, β5i subunit of the 20S proteasome (Homo sapiens, UniProt P20618+P28062).
T2 construct: The proteasome tested in the present disclosure was derived from Raji cells; endogenous in cells; host or cells: Raji cells
Put plainly: Proteasome inhibitory activity, β5i subunit (Raji cells treated with compound, lysed, Ac-ANW-AMC substrate). The following applies: proteasome from Raji cells incubated with compound 4 h.
Description: as §1, §2, §3, §4, §5, §6, §7, §8, §9, §10

IC50 data for 17 molecules are collected here from patent US20250346613A1, “BORIC ACID PROTEASOME INHIBITOR AND USE THEREOF” (ARTIVILA BIOPHARMA, priority 2022, published 2025).

Some results are limits rather than exact numbers.

Broadly, the IC50 is the concentration at which inhibition is half-maximal. Regarding `CC(C(=O)NCc1cccc(-c2ccccc2)n1)C(=O)N[C@@H](Cc1ccccc1)B(O)O` (stereo partly drawn) [Example 1, ((1R)-1-(2-methyl-3-oxo-3-(((6-phenylpyridin-2-yl)methyl)amino)propionylamino)-2-phenylethyl)boric acid], the IC50 in test [1], in test [2] and in test [3] was 50 to 200 nM throughout.
Take `COc1cccc(CNC(=O)C(CC2CC2)C(=O)N[C@@H](Cc2ccccc2)B(O)O)c1` (stereo partly drawn) [Example 3, ((1R)-1-(2-(cyclopropylmethyl)-3-((3-methoxybenzyl)amino)-3-oxopropionylamimo)-2-phenylethyl)boric acid]: the IC50 in test [1], in test [2] and in test [3] was not above 50 nM each time.
On to `COc1cccc(CNC(=O)C(C)C(=O)N[C@@H](Cc2coc3ccccc23)B(O)O)c1` (stereo partly drawn) [Example 9], for which the IC50 in test [1], in test [2] and in test [3] was not above 50 nM in each case.
In the case of `Cc1ccc(CNC(=O)/C=C/C(=O)N[C@@H](Cc2ccc(C)cc2)B(O)O)cc1` [Example 10], the IC50 in test [1] lay within 50 to 200 nM; in test [2] it was 200 to 500 nM; in test [3], 50 to 200 nM.
Take `CC(C)C[C@H](NC(=O)/C=C/C(=O)NCc1cccc(-c2ccccc2)n1)B(O)O` [Example 13, (R,E)-(3-methyl-1-(4-oxo-4-(((6-phenylpyridin-2-yl)methyl)amino)but-2-enamido)butyl)boric acid]: the IC50 in test [1], in test [2] and in test [3] was 50 to 200 nM each time.
As for `O=C(/C=C/C(=O)N[C@@H](Cc1ccccc1)B(O)O)NCc1cccc(-c2ccccc2)n1` [Example 14, (R,E)-(1-(4-oxo-4-(((6-phenylpyridin-2-yl)methyl)amino)but-2-enamido)-2-phenylethyl)boric acid], the IC50 in test [1], in test [2] and in test [3] was 50 to 200 nM each time.
Take `O=C(CCC(=O)N[C@@H](Cc1ccccc1)B(O)O)NCc1ccccc1` [Example 16, (R)-(1-(4-(benzylamino)-4-oxobutanoylamino)-2-phenylethyl)boric acid]: the results for the IC50 in test [1], in test [2] and in test [3] were 50 to 200 nM, 200 to 500 nM and not above 50 nM, respectively.
The corresponding values for `O=C(CC(=O)N[C@@H](Cc1coc2ccccc12)B(O)O)NCc1cccc(-c2ccccc2)c1` [Example 22, (R)-(1-(3-(([1,1′-biphenyl]-3-ylmethyl)amino)-3-oxopropionamido)-2-(benzofuran-3-yl)ethyl)boric acid] are not above 50 nM, not above 50 nM and not above 50 nM.
`Cc1ccc(C[C@H](NC(=O)CC(=O)NCc2cccc(-c3ccccc3)c2)B(O)O)cc1` [Example 27, (R)-(1-(3-(([1,1′-biphenyl]-3-ylmethyl)amino)-3-oxopropionamido)-2-(p-tolyl)ethyl)boric acid]: the IC50 in test [1], in test [2] and in test [3] was not above 50 nM in each case.
Consider `CC(C)C[C@H](NC(=O)C(C)C(=O)NCc1ccccc1)B(O)O` (stereo partly drawn) [Example 28, ((1R)-1-(3-(benzylamino)-2-methyl-3-oxopropionamido)-3-methylbutyl)boric acid], for which the IC50 in test [1], in test [2] and in test [3] was 50 to 200 nM throughout.
With `CC(C(=O)NCc1ccccc1)C(=O)N[C@@H](Cc1ccccc1)B(O)O` (stereo partly drawn) [Example 29, ((1R)-1-(3-(benzylamino)-2-methyl-3-oxopropionamido)-2-phenylethyl)boric acid], the IC50 in test [1] was not above 50 nM; in test [2], 50 to 200 nM; in test [3] it was not above 50 nM.
For `COc1cccc(CNC(=O)C(C)C(=O)N[C@@H](Cc2ccc(-c3ccccc3)cc2)B(O)O)c1` (stereo partly drawn) [Example 36, ((1R)-2-([1,1′-biphenyl]-4-yl)-1-(3-((3-methoxybenzyl)amino)-2-methyl-3-oxopropionamido)ethyl)boric acid], the IC50 in test [1], in test [2] and in test [3] was not above 50 nM throughout.
Take `Cc1ccc(C[C@H](NC(=O)C(C)C(=O)NCc2ccccc2)B(O)O)cc1` (stereo partly drawn) [Example 38, ((1R)-1-(3-(benzylamino)-2-methyl-3-oxopropionamido)-2-(p-tolyl)ethyl)boric acid]: the half-inhibitory concentration (IC50) in test [1] is 50 to 200 nM; in test [2] it was 200 to 500 nM; in test [3] it was 50 to 200 nM.
For the molecule `Cc1ccc(C[C@H](NC(=O)C(C)C(=O)Nc2ccccc2)B(O)O)cc1` (stereo partly drawn) [Example 40, ((1R)-1-(2-methyl-3-oxo-3-(phenylamino)propionamido)-2-(p-tolyl)ethyl)boric acid], the IC50 in test [1] was 50 to 200 nM; in test [2], 50 to 200 nM; in test [3], not above 50 nM.
With `CC(C)C[C@H](NC(=O)C(C)C(=O)NC1CCCCC1)B(O)O` (stereo partly drawn) [Example 41, ((1R)-1-(3-(cyclohexylamino)-2-methyl-3-oxopropionamido)-3-methylbutyl)boric acid], the values for the IC50 in test [1], in test [2] and in test [3] were 50 to 200 nM, 50 to 200 nM and not above 50 nM, respectively.
Consider `Cc1ccc(C[C@H](NC(=O)C(C)C(=O)NC2CCCCC2)B(O)O)cc1` (stereo partly drawn) [Example 42, ((1R)-1-(3-(cyclohexylamino)-2-methyl-3-oxopropionamido)-2-(p-tolyl)ethyl)boric acid], for which the figures for the IC50 in test [1], in test [2] and in test [3] were not above 50 nM, 50 to 200 nM and not above 50 nM, respectively.
With `COc1cccc(CNC(=O)C(C)C(=O)N[C@@H](Cc2ccc(C)cc2)B(O)O)c1` (stereo partly drawn) [Example 43, ((1R)-1-(3-((3-methoxybenzyl)amino)-2-methyl-3-oxopropionamido)-2-(p-tolyl)ethyl)boric acid], the IC50 in test [1], in test [2] and in test [3] was not above 50 nM in each case.
